The values below are quoted from earlier work in patent US20090270472A1, “METHOD TO USE OXYMETAZOLINE TO INTERRUPT THE DEVELOPMENT OF THE COMMON COLD SYNDROME” (priority 2008, published 2009).

Each structure is given as a SMILES string.

For this data set the following is noted: subjects with acute rhinitis; six (6) days with saline placebo.

Turning to `Cc1cc(C(C)(C)C)c(O)c(C)c1CC1=NCCN1` [oxymetazoline], the duration of rhinitis is listed as 4 days.
